Test results as given in patent publication US5061626A, “Antigenic anarogues of platelet activating factor” (University of Sydney, priority 1986, dated 1991).

Tests used:
PAF-antibodies = test: Competition assay of test substance against ^3 H-PAF for binding to PAF-antibodies; parameters: species or system rabbit; details: ^3 H-PAF 22,676 cpm
Method: The resulting mixture was centrifuged, washed twice with phosphate buffered saline containing 0.1% "Tween" 20, centrifuged and the sediment transferred in water (200 μl) to the liquid scintillant "Aquasol" (3 ml) and counted in a liquid scintillation counter.

PAF-acetylhydrolase [1] = test: Determination of PAF-acetylhydrolase activity in diluted human serum (remaining PAF read by platelet aggregation); format: biochemical; details: human sera diluted 1 in 100 with PBS, 27 hours at 25° C.
Method: (§1) Sera were diluted 1 in 100 in either PBS or 0.1% "Tween" in PBS (v/v). Diluted acid-treated sera were prepared by mixing sera (1 vol.) with 0.1M citrate buffer pH 3.0 (2 vol.), and then 15 minutes later with PBS ([…].).
(§2) The solution (50μl) was then tested for platelet aggregation activity at 37° C. in a Payton dual channel aggregometer using human platelet-rich plasma (500 μl).

PAF-acetylhydrolase [2] = test: Determination of PAF-acetylhydrolase activity in diluted rabbit serum (remaining PAF read by platelet aggregation); format: biochemical; details: rabbit sera diluted 1 in 100 with PBS, 27 hours at 25° C.
Method: as §1, §2

Compound | ASSAY COUNT (PAF-antibodies; test substance 500 ng) | ASSAY/CONTROL (PAF-antibodies; test substance 500 ng) [%] | ASSAY COUNT (PAF-antibodies; test substance 5,000 ng) | ASSAY/CONTROL (PAF-antibodies; test substance 5,000 ng) [%] | stability of PAF in serum (PAF-acetylhydrolase [1]) | stability of PAF in serum (PAF-acetylhydrolase [2]) | ASSAY COUNT (PAF-antibodies; test substance 0.5 ng) | ASSAY/CONTROL (PAF-antibodies; test substance 0.5 ng) [%] | ASSAY COUNT (PAF-antibodies; test substance 5 ng) | ASSAY/CONTROL (PAF-antibodies; test substance 5 ng) [%] | ASSAY COUNT (PAF-antibodies; test substance 50 ng) | ASSAY/CONTROL (PAF-antibodies; test substance 50 ng) [%] | ASSAY COUNT (PAF-antibodies; test substance 580 ng) | ASSAY COUNT (PAF-antibodies; test substance 5,800 ng)
lyso-lecithin | 2,668 cpm | 99.4 | 2,658 cpm | 99.0 | – | – | – | – | – | – | – | – | – | –
lecithin | 2,545 cpm | 99.6 | 2,994 cpm | – | – | – | – | – | – | – | – | – | – | –
1-O-alkyl-2-O-acetyl-sn-glycero-3-phosphocholine [PAF] | 598 cpm | 18.6 | 228 cpm | 4.1 | destroyed | destroyed | 2,561 cpm | 95.2 | 2,316 cpm | 85.7 | 1,602 cpm | 57.8 | – | –
CCCCCCCCCCCCCCCCOC[C@@H](O)COP(=O)([O-])OCC[N+](C)(C)C [lyso-PAF] | – | – | – | – | – | – | – | – | – | – | – | – | 2,744 cpm | 2,746 cpm
